According to patent US4895933A, “New antitumor agent obtained by microbial stereoselective reduction of 4'-deoxy-4'-iododoxorubicin” (Farmitalia Carlo Erba S.p.A., priority 1987, dated 1990):
≈ marks a conversion by molar mass, not a printed value. Read-outs that look alike come from different tables or passages of the source.

Tests used:
HeLa cells = assay: in vitro cytotoxic activity, HeLa cells colony formation; assay type: cell-based, human; settings: for IC50: HeLa, read-out: ID50 (dose giving 50% reduction of cell number in comparison with untreated controls)
Excerpt: ^(a) Dose giving 50% reduction of cell number in comparison with […]

P388 leukemia cells = assay: in vitro cytotoxic activity, P388 cells colony formation; assay type: cell-based; settings: for IC50: Mus musculus
Excerpt: ^(a) Dose giving 50% reduction of cell number in comparison with
^(c) P388 leukemia cells.

[1] = test system: disseminated Gross leukemia; assay: in vivo antitumor activity against disseminated Gross leukemia; parameters: species or system C3H mice; settings: for Toxic deaths (evaluated on the basis of autopsy findings on dead mice): C3H mice; for T/C % (median survival time of treated mice/median survival time of controls × 100): day after tumor injection, in parentheses: single experiments
Method: The "in vivo" antitumor activity, FCE 24883 (II) was tested against disseminated Gross leukemia. C3H mice were injected intravenously with 2.10^6 cell/mouse and treated with compounds under study 24 hours after the tumor injection.
^(a) C3H mice were injected i.v. with 2 × 10^6 leukemia
cells and treated i.v. with the compounds the day after the tumor
^(b) (Median survival time of treated mice/median survival time of
^(c) Evaluated on the basis of autopsy findings on dead mice.

solubility = assay type: physicochemical
experimental tumors = assay: activity on experimental tumors (general statement); settings: in vivo
[2] = human cervix epithelioid carcinoma cells
[3] = P388 leukemia cells, read-out: ID50 (dose giving 50% reduction of cell number in comparison with untreated controls)

COc1cccc2c1C(=O)c1c(O)c3c(c(O)c1C2=O)C[C@@](O)(C(=O)CO)C[C@@H]3O[C@H]1C[C@H](N)[C@H](O)[C@H](C)O1 [DX, Doxorubicin]
IC50 (HeLa cells; Homo sapiens): 10.8 ng/mL (≈ 0.0199 µM)
IC50 (P388 leukemia cells; P388, read-out: ID50 (dose giving 50% reduction of cell number in comparison with untreated controls)): 8 ng/mL (≈ 0.0147 µM)
Toxic deaths (evaluated on the basis of autopsy findings on dead mice) ([1]; 10 mg/Kg i.v.): 0/20
T/C % (median survival time of treated mice/median survival time of controls × 100) ([1]; 10 mg/Kg i.v.): 200 (200, 200) %
Toxic deaths (evaluated on the basis of autopsy findings on dead mice) ([1]; 13 mg/Kg i.v.): 0/20
T/C % (median survival time of treated mice/median survival time of controls × 100) ([1]; 13 mg/Kg i.v.): 225 (230, 220) %
Toxic deaths (evaluated on the basis of autopsy findings on dead mice) ([1]; 16.9 mg/Kg i.v.): 2/20
T/C % (median survival time of treated mice/median survival time of controls × 100) ([1]; 16.9 mg/Kg i.v.): 250 (260, 240) %

COc1cccc2c1C(=O)c1c(O)c3c(c(O)c1C2=O)C[C@@](O)(C(=O)CO)C[C@@H]3O[C@H]1C[C@H](N)[C@H](I)[C@H](C)O1 [FCE 21954 (I), 4'-deoxy-4'-iododoxorubicin]
IC50 (HeLa cells; [2]): 10.4 ng/mL (≈ 0.0159 µM)
IC50 (P388 leukemia cells; [3]): 2.1 ng/mL (≈ 0.00321 µM)
Toxic deaths (evaluated on the basis of autopsy findings on dead mice) ([1]; 4 mg/Kg i.v.): 0/20
T/C % (median survival time of treated mice/median survival time of controls × 100) ([1]; 4 mg/Kg i.v.): 240 (240, 240) %
Toxic deaths (evaluated on the basis of autopsy findings on dead mice) ([1]; 5.2 mg/Kg i.v.): 4/20
T/C % (median survival time of treated mice/median survival time of controls × 100) ([1]; 5.2 mg/Kg i.v.): 260 (260, 260) %
Toxic deaths (evaluated on the basis of autopsy findings on dead mice) ([1]; 6.8 mg/Kg i.v.): 19/20
T/C % (median survival time of treated mice/median survival time of controls × 100) ([1]; 6.8 mg/Kg i.v.): 145 (160, 130) %

COc1cccc2c1C(=O)c1c(O)c3c(c(O)c1C2=O)C[C@@](O)([C@@H](O)CO)C[C@@H]3O[C@H]1C[C@H](N)[C@H](I)[C@H](C)O1 [FCE 24883 (II), 4'-deoxy-13(S)-dihydro-4'-iododoxorubicin]
cytotoxic activity, potency in comparison with compound I and doxorubicin (HeLa cells; HeLa cells, in vitro): as potent as 4'-deoxy-4'-iododoxorubicin (I) and doxorubicin
IC50 (HeLa cells; [2]): 8 ng/mL (≈ 0.0122 µM)
IC50 (P388 leukemia cells; [3]): 3.5 ng/mL (≈ 0.00534 µM)
cytotoxic activity, potency in comparison with compound I and doxorubicin (P388 leukemia cells; P388 cells, in vitro): as potent as 4'-deoxy-4'-iododoxorubicin (I) and doxorubicin
Toxic deaths (evaluated on the basis of autopsy findings on dead mice) ([1]; 4 mg/Kg i.v.): 0/10
T/C % (median survival time of treated mice/median survival time of controls × 100) ([1]; 4 mg/Kg i.v.): 180 (180) %
Toxic deaths (evaluated on the basis of autopsy findings on dead mice) ([1]; 5.2 mg/Kg i.v.): 0/20
T/C % (median survival time of treated mice/median survival time of controls × 100) ([1]; 5.2 mg/Kg i.v.): 220 (220, 220) %
Toxic deaths (evaluated on the basis of autopsy findings on dead mice) ([1]; 6.8 mg/Kg i.v.): 0/20
T/C % (median survival time of treated mice/median survival time of controls × 100) ([1]; 6.8 mg/Kg i.v.): 220 (220, 220) %
Toxic deaths (evaluated on the basis of autopsy findings on dead mice) ([1]; 8.8 mg/Kg i.v.): 5/9
T/C % (median survival time of treated mice/median survival time of controls × 100) ([1]; 8.8 mg/Kg i.v.): 140 (140) %
toxicity displayed ([1]; at the active doses): minor toxicity
antitumor potency in comparison with compound I ([1]; at the optimal dose): as potent as 4'-deoxy-4'-iododoxorubicin (I)
antitumor potency in comparison with doxorubicin ([1]; at the optimal dose): more potent than doxorubicin
antitumor activity, evaluated as median survival time of treated over control mice, in comparison with I and doxorubicin ([1]; mouse, in vivo): can be compared with those of I and doxorubicin
solubility of the free base (solubility; free base, polar organic solvents and aqueous alcohols): soluble in polar organic solvents and aqueous alcohols
solubility of the hydrochloride in organic solvents (solubility; hydrochloride, organic solvents): slighty soluble in organic solvents
solubility of the hydrochloride in water and lower alcohols (solubility; hydrochloride, water and lower alcohols): soluble in water and lower alcohols
activity on experimental tumors in comparison with compound I (experimental tumors): comparable with that of 4'-deoxy-4'-iododoxorubicin (I)
